Assay results: patent US7253189B2, “Cannabinoid receptor ligands” (Schering Corporation, priority 2002, dated 2007)

target: T1, recombinant human cannabinoid CB2 receptor (Homo sapiens, UniProt P34972); assay: competition with [3H] CP-55,940 for binding to recombinant cannabinoid CB2 receptor membranes; settings: not given
T1 construct: purchased Receptor Biology RB-HCB2
Protocol: Potential cannabinoid receptor ligands were screened for the ability to compete with [^3H] CP-55,940 for binding to recombinant cannabinoid receptors. Test compounds were serially diluted in Diluent Buffer (50 mM Tris pH 7.1, 1 mM EDTA, 3 mM MgCl2, 0.1% BSA, 10% DMSO, 0.36% methyl cellulose (Sigma M-6385)) from stocks prepared in 100% DMSO. Aliquots (10 μl) were transferred into 96-well microtiter plates. Membrane preparations of recombinant human cannabinoid CB2 receptor (Receptor Biology #RB-HCB2) or recombinant human cannabinoid CB1 receptor (Receptor Biology #RB-HCB1) were diluted to 0.3 mg/ml in Binding Buffer (50 mM Tris pH 7.2, 1 mM EDTA, 3 mM MgCl2, 0.1% BSA). Aliquots (50 μl) were added to each well of the microtiter plate. The binding reactions were initiated by addition of [^3H] CP-55,940 (New England Nuclear # NET 1051; specific activity=180 Ci/mmol available from New England Nuclear) to each well of the microtiter plate. Each 100 μl reaction mixture contained 0.48 nM [^3H] CP-55,940, 15 ug membrane protein in binding buffer containing 1% DMSO and 0.036% methyl cellulose. Following incubation for 2 hours at room temperature, the reaction mixtures were filtered through 0.5% polyethylenimine-coated GF/C filter plates (UniFilter-96, Packard) with a TomTec Mark 3U Harvester (Hamden, Conn.). The filter plate was washed 5 times with binding buffer, rotated 180°, then re-washed 5 times with binding buffer. Bound radioactivity was quantitated following addition of 30 μl of Packard Microscint 20 scintillant in a Packard TopCount NXT microplate scintillation counter. Non-linear regression analysis of the resulting data was performed using Prism 2.0b (from GraphPad, San Diego, Calif.).
The activities (potencies) for the compounds of the invention are determined by measuring their Ki values.

T1 sequence (P34972 whole entry): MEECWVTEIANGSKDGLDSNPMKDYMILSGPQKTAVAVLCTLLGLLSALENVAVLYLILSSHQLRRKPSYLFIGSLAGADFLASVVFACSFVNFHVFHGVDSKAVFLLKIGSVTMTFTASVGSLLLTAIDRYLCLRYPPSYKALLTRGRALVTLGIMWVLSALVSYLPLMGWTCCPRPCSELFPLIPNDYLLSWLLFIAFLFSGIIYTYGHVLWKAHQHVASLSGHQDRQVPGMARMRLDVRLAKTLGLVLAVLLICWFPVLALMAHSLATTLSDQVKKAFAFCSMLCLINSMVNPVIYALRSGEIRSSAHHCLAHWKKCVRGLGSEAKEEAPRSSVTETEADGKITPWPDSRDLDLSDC

SMILES	Ki [nM]
CS(=O)(=O)NC1CCc2cc(C(=O)c3ccc(OC(F)(F)F)cc3S(=O)(=O)c3ccccc3F)ccc21 (stereo not drawn) [Compound 2]	< 20
CS(=O)(=O)NC1CCc2cc(S(=O)(=O)c3ccc(C4CC4)cc3S(=O)(=O)c3ccccn3)ccc21 (stereo not drawn) [Compound 9]	< 20

same assay, conditions: 0.48 nM [3H] CP-55,940, 15 ug membrane protein, 2 hours at room temperature; read-out: CB2 Ki

SMILES	Ki [nM]
O=C(NC1CCc2cc(S(=O)(=O)c3ccc(C4CC4)cc3S(=O)(=O)c3ccccn3)ccc21)C(F)(F)F (stereo not drawn) [Compound 19]	< 20
O=S(=O)(c1ccc2c(c1)CCC2NS(=O)(=O)C(F)(F)F)c1ccc(Cl)cc1S(=O)(=O)c1ccccc1F (stereo not drawn) [Compound 6]	< 20
COc1ccc(S(=O)(=O)c2ccc3c(c2)CCC3NS(=O)(=O)C(F)(F)F)c(S(=O)(=O)c2ccccc2F)c1 (stereo not drawn) [Compound 5]	< 20
CS(=O)(=O)NC1CCc2cc(S(=O)(=O)c3cc4ccccc4n3S(=O)(=O)c3ccccn3)ccc21 (stereo not drawn) [Compound 10]	< 20
O=C(NC1CCc2cc(Cc3ccc(OC(F)(F)F)cc3S(=O)(=O)c3ccccc3F)ccc21)C(F)(F)F (stereo not drawn) [Compound 23]	< 20
CS(=O)(=O)NC1CCc2cc(S(=O)(=O)c3ccc(Cl)cc3S(=O)(=O)c3ccccn3)ccc21 (stereo not drawn) [Compound 8]	< 20
O=S(=O)(c1ccc2c(c1)CCC2NS(=O)(=O)C(F)(F)F)c1ccc(C2CC2)cc1S(=O)(=O)c1ccccn1 (stereo not drawn) [Compound 12]	< 20
